Patent US11345756B2, “CCR3 inhibition for ocular angiogenesis and macular degeneration” (University of Kentucky Research Foundation, priority 2006, dated 2022)

Test system: CNV (choroidal neovascularization)
Assay: Laser-induced CNV volume, confocal evaluation of isolectin B4 stained RPE-choroid flatmounts
Format: in vivo
Details: C57BL/6J mice, laser injury, blockade of CCR3 ligand by neutralizing antibody injected into the vitreous humor; compared to control antibodies, all Ps<0.001
Experimental: Laser photocoagulation (532 nm, 200 mW, 100 ms, 75 μm) (OCULIGHT™ GL, Index Corporation) was performed (volume studies: 3/eye; protein analyses/flow cytometry: 12/eye) on both eyes of each animal to induce CNV (choroidal neovascularization). CNV volumes were measured by scanning laser confocal microscope (TCS SP, Leica) with 0.5% FITC-Griffonia simplicifolia Isolectin B4 (Vector Laboratories). CNV was induced by laser injury in C57BL/6J and Ccr3^−/− mice and volumes measured 7 days later by confocal evaluation of Griffonia simplicifolia Isolectin B4 staining of RPE-choroid flatmounts. Neutralizing antibodies (Ab) against CCR3, eotaxin (CCL-11), eotaxin-2 (CCL-24), RANTES, MCP-3 or control goat IgG or rat IgG2a were injected into the vitreous humor following injury.
Because the probability of each laser lesion developing CNV is influenced by the group to which it belongs, the mouse, the eye, and the laser spot, the mean lesion volumes were compared using a linear mixed model with a split plot repeated measures design. The whole plot factor was the genetic group to which the animal belonged while the split plot factor was the eye. Statistical significance was determined at the 0.05 level. Post hoc comparison of means was constructed with a Bonferroni adjustment for multiple comparisons.

## eotaxin
  suppression of CNV: 45%
